Data on one compound can be found in patent publication US20040204577A1, “Novel peptide-forming enzyme gene” (Ajinomoto Co., Inc., priority 2003, published 2004).

For experiment [1], the system named is peptide-forming enzyme (Mono S fraction enzyme). The experiment is described as follows: Enzyme substrate specificity (1)-(10), (13), (14): peptide production. In kind it is biochemical, Empedobacter brevis. The settings on record: pH 9.0, 25° C., 3 hours. In outline: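 Mono S enzyme fraction in 100 mM borate buffer (pH 9.0) with 10 mM EDTA and 100 mM carboxy component (amino acid methyl esters or amides); amine components (L-glutamine, amino acids, amino acid amides or methylamine) at 150 mM, or 200 mM L-glutamine with varied esters. Reactions ran at 25° C for 2–3 hours; 0.1% Tween-80 added for Trp/Tyr-OMe.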

In experiment [2] the test system is SP-Sepharose HP fraction enzyme. The experiment is described as follows: Production of L-alanyl-L-glutamine using enzyme fraction of Sphingobacterium sp. The settings on record: 10 μl fraction (about 27 U/ml) + 90 μl buffer with 111 mM L-alanine methyl ester hydrochloride, 222 mM L-glutamine; pH 9.0, 25° C., 120 minutes. In kind it is biochemical. On the procedure:
The following procedure after centrifugation was carried out either on ice or at 4° C. Sphingobacterium sp. strain FERM BP-8124 (Depositary institution: the independent administrative corporation, National Institute of Advanced Industrial Science and Technology, International Patent Organism Depositary, Address of depositary institution: Chuo Dai-6, 1-1 Higashi 1-Chome, Tsukuba-shi, Ibaraki-ken, Japan, International deposit date: Jul. 22, 2002) was cultured in the same manner as Example 21, and the microbial cells were collected by centrifugation (10,000 rpm, 15 minutes). After washing 2 g of microbial cells with 20 mM Tris-HCl buffer (pH 7.6), they were suspended in 8 ml of the same buffer and subjected to ultrasonic crushing treatment for 45 minutes at 195 W. This ultrasonic crushed suspension was then centrifuged (10,000 rpm, 30 minutes) to remove the crushed cell fragments and obtain a supernatant. This supernatant was dialyzed overnight against 20 mM Tris-HCl buffer (pH 7.6) followed by removal of the insoluble fraction by ultracentrifugation (50,000 rpm, 30 minutes) to obtain a soluble fraction in the form of the supernatant liquid. The resulting soluble fraction was applied to a Q-Sepharose HP column (manufactured by Amersham) pre-equilibrated with Tris-HCl buffer (pH 7.6), and the active fraction was collected from the non-adsorbed fraction. […]

Where a SMILES comes first, the peptide text is derived from it.

For the compound `C[C@H](N)C(=O)N[C@@H](CCC(N)=O)C(=O)O` [L-Ala-L-Gln, L-alanyl-L-glutamine] (H-Ala-Gln-OH), the Formed peptide in experiment [1] (100 mM L-alanine methyl ester hydrochloride, L-amino acid 150 mM) turned out to be 79.3 mM; in experiment [1] (L-amino acid amide hydrochloride as carboxy component 100 mM, L-amino acid 150 mM), 7.6 mM; in experiment [1] (L-amino acid methyl ester hydrochloride 100 mM, 150 mM L-glutamine), 74.6 mM. In addition, the “L-alanyl-L-glutamine formed, enzyme-added lot” value in experiment [2] was 73 mM.
